In experiment [1] the test system is db/db mice and DIO mice. Kind of experiment: Long-term administration, weight loss in db/db mice and DIO mice. Format: in vivo, mouse.
Experiment [2] deals with normal mice. Put plainly: Food intake of mice after single intraperitoneal injection. Format: in vivo, mouse. Particulars: 20 mg/kg intraperitoneal; 0-3 h, 0-6 h, 0-12 h, 0-24 h. As to the method:
Mice were intraperitoneally injected with DMSO or HLY72 (dissolved in DMSO) 25 μL within 2 hours before turning off the lamp. During the intragastric experiment, the high concentration of HLY72 dissolved in DMSO was dissolved in 10% cyclodextrin, and the total volume was 100 μL Volume by gavage, so that the final concentration of DMSO was less than 10%. The diet was weighed at the 3rd hour, the 6th hour, the 12th hour, and the 24th hour respectively after the lights out. The corresponding mouse body weight was also weighed at the same time before the daily administration. The fat content of mice was measured with the magnetic resonance fat content measuring instrument of the animal platform in SIBCB.
The next question we are very concerned about is whether HLY78 has similar functions to NUCB2 protein in mice. Up to now, the most classic function reported for NUCB2 protein is to reduce the food intake of mice at night. Therefore, the experiment was designed: 20 mg/kg of HLY78 was injected intraperitoneally within two hours before turning off the lights at night, and then the food intake of the mice was measured at different time points (0-3 h, 0-6 h, 0-12 h, 0-24 h). […] During the three days of the adaptive injection period before HLY78 injection, both groups of mice were injected with DMSO. On the day of injection of HLY78 and the two days before the injection of DMSO, the body weight of the two groups of mice is also the same (FIG. 2b).
Next, two small molecules HLY72 and HLY103 were selected to perform functional experiments on the food intake in mice.

Experiment [3] addresses T1, NUCB2 protein (Mus musculus, UniProt P81117).
T1 construct: Immediately the mouse full-length NUCB2 protein expressed in E. coli was purified; His tag (inferred from pET-28A vector, Ni-NTA purification and His antibody); made in house; host or cells: E. coli BL21-CodonPlus (DE3)
T1 sequence (P81117 25-420): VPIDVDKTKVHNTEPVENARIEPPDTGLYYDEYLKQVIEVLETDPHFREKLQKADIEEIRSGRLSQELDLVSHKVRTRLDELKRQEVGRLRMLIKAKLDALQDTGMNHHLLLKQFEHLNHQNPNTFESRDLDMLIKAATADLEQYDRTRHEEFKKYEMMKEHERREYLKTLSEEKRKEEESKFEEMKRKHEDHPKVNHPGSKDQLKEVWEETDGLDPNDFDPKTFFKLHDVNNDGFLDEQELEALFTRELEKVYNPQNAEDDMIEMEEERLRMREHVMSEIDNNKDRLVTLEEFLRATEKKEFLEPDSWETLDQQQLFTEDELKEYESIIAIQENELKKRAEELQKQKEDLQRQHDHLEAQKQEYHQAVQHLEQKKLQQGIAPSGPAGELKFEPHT
Kind of experiment: Competitive binding experiment: small molecules compete with Bio78 (HLY179) for NUCB2. Particulars: competitor final concentration 100 μM; HLY179 20 μM. As to the method:
(§1) When doing the combining experiments, (1) pre-treating Streptavidin-Agarose, washing Streptavidin-Agarose Beads with IP buffer, and spinning it on the rotor for 10 minutes. (2) Re-binding small molecules HLY179 (20 μM) and Streptavidin-Agarose Beads, spinning it in a refrigeration house at 4° C. for 1-2 hours. (3) When the previous step was performed for about 1 hour, the protein was pre-cleared at the same time, and the protein and the washed Streptavidin-Agarose were rotated in a refrigeration house at 4° C. for 30 minutes. (4) the Streptavidin-Agarose Beads binded with HLY179 was centrifuged, the supernatant was removed, washed again with 600 μL of IP buffer (rotated at 4° C. for 3 minutes), centrifuged, and the supernatant was removed carefully. (5) the pre-cleard protein was added and rotated in a refrigeration house at 4° C. for 2 hours. Washd twice with IP buffer 800 μL, 2 minutes each time (all rotated in a refrigeration house at 4° C.). After the last wash, the supernatant was removed, 40 μL of 2*loading was added and cooked for 10 minutes, stored at −20° C. When doing competitive binding experiments, in the third step while pre-treating the protein adding different small molecule compounds, the final concentration was 100 μM, and the rest was the same. Western Blot: Preparing the appropriate concentration of SDS-PAGE gel, adding protein sample for electrophoretic separation. […]

Experiment [4] addresses T1, NUCB2 protein. Put plainly: In vitro binding experiment (streptavidin-agarose pull-down, Western blot) of biotin-linked small molecules with full-length NUCB2. Particulars: mouse full-length NUCB2 expressed in E. coli. As to the method: as §1
In general terms: A western blot detects proteins with antibodies after separation by electrophoresis.

The subject of experiment [5] is Wnt signal. Kind of experiment: TOPFlash reporter gene activity test in HEK293T cells. The format is cell-based. As to the method:
The HEK293T cells used for the measurement of reporter gene activity were plated at 20 hours before transfection and cultured to about 50% coverage for the transfection. The transfection method was as described above. For HEK293T cells, transfection was performed according to 20 ng TOPFlash, 20 ng GFP and 460 ng lacZ per well, and Wnt3a or Nesfatin-1/NUCB2 protein was added at 18 hours after transfection to stimulate for 6-8 hours, and the cell was lysed with Boehringer Mannheim Luciferase Assay Kit (200 μl/well) for 15 minutes, 50 μl lysate was added in the fluorometer BIO-TEK Synergy2 (Gene Company Limited) to measure the GFP fluorescence intensity in the cell lysate as an internal standard, and then 20 μl luciferase substrate (Roche) was added for the reaction, the luciferase activity was detected in the chemiluminescence channel, and finally the GFP reading was used as an internal standard for homogenization.
We focus on the three small molecules HLY72, HLY103, and HSS49A (FIG. 3a). […] So that the first biochemical experiment design is: whether these three small molecules can compete for the binding of HLY179 to NUCB2 protein.
A general note: Reporter assays use an easily measured gene product as a stand-in for the process of interest.

Take `CCc1cccc2c1N(C)Cc1cc3c(cc1-2)OCO3` [HLY78]: the weight loss effect entry in experiment [1] was “good weight loss effect”. In addition, the “food intake of mice” value in experiment [2] is “significantly reduce”. Besides, in experiment [3], the “compete with Bio78 for binding to NUCB2” value is listed as “can compete”. Also, the “binding of purified NUCB2 protein to small molecule” value in experiment [4] is reported as “specifically binds”. In experiment [5], the “activity of Wnt signal activation” value is recorded as “can synergistically activate”.

Values taken from patent US20200385396A1, “Compond for treatment or prevention of obesity or diseases related to obesity, and application thereof” (SHANGHAI INSTITUTES FOR BIOLOGICAL SCIENCES, CHINESE …, priority 2017, published 2020).
